{
  "source": "the NIST ThermoML archive (doi:10.1021/je7003947)",
  "details": "Liquid, Closed cell (Static) method",
  "note": "Where “and” joins values, the source holds several entries; their conditions need not be identical. Equal values may be shown once. ± gives the expanded uncertainty stated by the source.",
  "data": [
    {"smiles": "CC(C)(C)O", "note": "[2-methylpropan-2-ol]", "values": [
      {"measurement": "vapor or sublimation pressure", "setting": "323.2 K", "result": "23.8 ± 1.4", "unit": "kPa"}
    ]},
    {"smiles": "CCC(C)O", "note": "(stereo not drawn) [butan-2-ol]", "values": [
      {"measurement": "vapor or sublimation pressure", "setting": "323.17 K", "result": "10.7 ± 1.4", "unit": "kPa"}
    ]},
    {"smiles": "CCCC", "note": "[butane]", "values": [
      {"measurement": "vapor or sublimation pressure", "setting": "323.12 K", "result": "495 ± 2.2", "unit": "kPa"},
      {"measurement": "vapor or sublimation pressure", "setting": "323.13 K", "result": "495.3 ± 2.2", "unit": "kPa"},
      {"measurement": "vapor or sublimation pressure", "setting": "323.15 K", "result": "495.6 ± 1.8 kPa and 495.7 ± 2.2 kPa"}
    ]},
    {"smiles": "CCO", "note": "[ethanol]", "values": [
      {"measurement": "vapor or sublimation pressure", "setting": "323.14 K", "result": "29.4 ± 1.4", "unit": "kPa"}
    ]},
    {"smiles": "CO", "note": "[methanol]", "values": [
      {"measurement": "vapor or sublimation pressure", "setting": "323.13 K", "result": "55.5 ± 1.4", "unit": "kPa"}
    ]},
    {"smiles": "CC(C)O", "note": "[propan-2-ol]", "values": [
      {"measurement": "vapor or sublimation pressure", "setting": "323.19 K", "result": "23.6 ± 0.2", "unit": "kPa"}
    ]}
  ]
}
